# Measurements as given in patent US20250009765A1, “COMPOSITIONS AND METHODS FOR REDUCING SLEEP DI[…] TREATING SLEEP DISORDERS” (FloraScience Inc., priority 2023, published 2025).
# Key:
# Assay type in all cases: in vivo, human
# sleep disturbance [1] = assay: PROMIS Sleep Disturbance 8A survey, randomized blinded placebo-controlled study
# Method: (§1) The primary aim of this study was to assess the effects of three different formulations of TruCBN softgels and a formulation of 4 mg melatonin on sleep quality, relative to placebo control. There were 5 arms within the study; (1) 4 mg melatonin, (2) 25 mg CBN, (3) 50 mg CBN, (4) 100 mg CBN, and (5) placebo (see Table 1 for further details on study arm formulations). All study arms provided the test article as a softgel. Participants were instructed to take 1 softgel 1-2 hours before bed. To ensure that results were not biased, participants were randomly assigned to product, were blinded to the contents, and were not told what they were taking until the conclusion of the study. The secondary aim of the study was to assess the tolerability of the three formulations of TruCBN softgels and 4 mg melatonin, relative to placebo.
# (§2) Study participants were at least 21 years old, endorsed a desire for better sleep quality, and expressed interest in taking a cannabinoid product to improve their sleep. The study was entirely virtual; participants were recruited through online recruitment channels, study product was delivered directly to participants' homes, and all data were collected via online surveys delivered to their mobile device or computer. There were four phases of the study (see FIG. 1 for study timeline): (1) Recruitment and Randomization, (2) Baseline (1 week), (3) Study period (2-5 weeks), and (4) Conclusion.
# PROMIS™ Sleep Disturbance 8A: An 8-question survey, with severity thresholds based on T-scores not raw scores. The severity scores are established as follows: • “None to slight”=Less than 55 • “Mild”=55.0-59.9 • “Moderate”=60.0-69.9 • “Severe”=70 and up
# The range of raw scores were from 8 to 40, with higher scores translating to greater sleep disturbance (i.e., worse sleep quality). PROMIS™ Sleep Disturbance 8A threshold for minimally important difference: One-half the standard deviation of the baseline score (Purvis, Taylor E. et al., SPINE, 2018, 43(21):1512-1520).
# (§3) After receiving study product, each participant was instructed to take 1 softgel each day orally 1-2 hours before bed and complete weekly health and product use surveys. This phase of the study lasted about 4 weeks.
# (§4) For precision, adjustments were made for sex, age, race, ethnicity, and body mass index (BMI) in every model. […] Analysis was conducted using Stata 17 and R. An intent-to-treat analysis was run, meaning that all participants who were assigned product (aside from the aforementioned exclusions) were included in the analysis according to their product assignment, regardless of product adherence or study attrition. Visuals of the predicted marginal means of health scores, rather than the raw mean scores, were prepared. Predicted marginal means were calculated from the statistical models and better represent the true differences between arms adjusting for any potential imbalances across arms. A finding that was “significant” means that the likelihood of falsely rejecting the null hypothesis that there were no differences between groups was very small (less than 5%; i.e., the p-value was less than 0.05). In other words, when certain findings were said to be “significant” they are not considered the result of random variation.
# sleep disturbance [2] = assay: PROMIS Sleep Disturbance SF4A survey, randomized blinded placebo-controlled study
# Method: as §1, §2
# The PROMIS™ Sleep Disturbance SF4A threshold for minimally important difference: One-half the standard deviation of the baseline score (Norman, G. R. et al., Med. Care, 2003, 41:582-592).
# as §3, §4
# sleep disturbance [3] = assay: Participant global impression of change (PGIC) in sleep disturbance
# Method: as §1
# Participants received a final study survey asking about their overall experiences and impressions. Afterwards they also receive a Report containing their individualized data.
# as §4
# [4] = Average time to effect reported by participants; settings: 4 mg melatonin softgel, oral
# Method: as §3
# Participants reported experiencing an effect between 46 and 55 minutes after taking their study product.
# [5] = Tolerability: side effects reported by participants; settings: 4 mg melatonin
# Method: as §1, §3
# The side effects for all study arms were similar in frequency and mostly mild; none were considered serious or required use of emergency or non-emergency healthcare services. The most commonly reported side effect was grogginess or drowsiness (see FIG. 7). Additional side effects reported by some participants included: chest pain, constipation, urinary tract infection, tingling in lips, dry mouth, weight gain, dry or itchy eyes, low libido, rash, and brain fog.
# [6] = 4 mg melatonin − placebo, 95% CI in parentheses
# [7] = 4 mg melatonin, 30% or greater reduction from baseline
# [8] = 4 mg melatonin, improvement = 30% or greater reduction from baseline, 95% CI in parentheses
smiles,measurement,setting,value
"COc1ccc2[nH]cc(CCNC(C)=O)c2c1 [melatonin, reference compound]","Parameter Estimate for PROMIS Sleep Disturbances 8a, Treatment","sleep disturbance [1]; 4 mg Melatonin, reference placebo, linear mixed-effects model",−0.56
same,Relative Risk for meaningful clinical improvement on the PROMIS Sleep Disturbance 8A,sleep disturbance [1]; [6],"1.43 (0.7, 2.16)"
same,Observed % Achieving Meaningful Clinical Improvement on the PROMIS Sleep 8A,sleep disturbance [1]; [7],51.9%
same,% experiencing MCID in PROMIS Sleep Disturbance 8A score,"sleep disturbance [1]; 4 mg melatonin, MCID = score reduction of one half the standard deviation of the baseline score",51.9%
same,Estimated marginal percentage achieving meaningful clinical improvement on the PROMIS Sleep 8A,sleep disturbance [1]; [8],"50.5% (37.54%, 67.94%)"
same,"Estimated marginal mean, PROMIS Sleep Disturbance 8A","sleep disturbance [1]; 4 mg melatonin, week 1",20.7
same,"Estimated marginal mean, PROMIS Sleep Disturbance 8A","sleep disturbance [1]; 4 mg melatonin, week 2",20.4
same,"Estimated marginal mean, PROMIS Sleep Disturbance 8A","sleep disturbance [1]; 4 mg melatonin, week 3",20.7
same,"Estimated marginal mean, PROMIS Sleep Disturbance 8A","sleep disturbance [1]; 4 mg melatonin, week 4",20.4
same,Relative Risk for meaningful clinical improvement on the PROMIS Sleep SF4A,sleep disturbance [2]; [6],"1.49 (0.74, 2.25)"
same,Observed % Achieving Meaningful Clinical Improvement on the PROMIS Sleep SF4A,sleep disturbance [2]; [7],53.25%
same,Estimated marginal percentage achieving meaningful clinical improvement on the PROMIS Sleep SF4A,sleep disturbance [2]; [8],"51.25% (38.25%, 68.7%)"
same,"Estimated marginal mean, PROMIS Sleep Disturbance SF4A","sleep disturbance [2]; 4 mg melatonin, week 1",10.8
same,"Estimated marginal mean, PROMIS Sleep Disturbance SF4A","sleep disturbance [2]; 4 mg melatonin, week 2",10.7
same,"Estimated marginal mean, PROMIS Sleep Disturbance SF4A","sleep disturbance [2]; 4 mg melatonin, week 3",10.7
same,"Estimated marginal mean, PROMIS Sleep Disturbance SF4A","sleep disturbance [2]; 4 mg melatonin, week 4",10.5
same,Parameter estimate for PGIC in sleep disturbance,"sleep disturbance [3]; 4 mg Melatonin, treatment reference placebo, log-odds scale",0.79
same,"Marginal mean (95% confidence interval), sleep disturbance PGIC",sleep disturbance [3]; 4 mg melatonin,3.88
same,"Odds Ratio (95% Confidence interval), sleep disturbance PGIC","sleep disturbance [3]; 4 mg melatonin − placebo, Dunnett correction","2.21 (1.15, 4.21)"
same,Average time to effect,[4],49.1 min
same,% of participants reporting any side effects,[5],11.9%
